Structures can show the parent of a compound that is named as a salt.
Assays:
[1] = target: T1, α2δ-subunit of a calcium channel (Sus scrofa, UniProt A0A287BIN3); assay: radioligand binding assay using [3H]-gabapentin; details: α2δ-subunit derived from porcine brain tissue
T1 construct: the α2δ-subunit derived from porcine brain tissue was used; from tissue; host or cells: porcine brain tissue
Text: The ability of compounds of the present invention to bind to the α2δ-subunit of a calcium channel can be determined using the following binding assay.
The radioligand binding assay using [^3H]-gabapentin and the α2δ-subunit derived from porcine brain tissue was used (See, Gee, Nicolas S et at “The novel anticonvulsant drug, gabapentin (Neurontin), binds to the α2δ subunit of a calcium channel”. J. Biol. Chem. (1996), 271(10), 5768-76). Compounds of the invention bind with nanomolar to micromolar affinity for the α2δ protein.

T1 sequence (A0A287BIN3 25-1109): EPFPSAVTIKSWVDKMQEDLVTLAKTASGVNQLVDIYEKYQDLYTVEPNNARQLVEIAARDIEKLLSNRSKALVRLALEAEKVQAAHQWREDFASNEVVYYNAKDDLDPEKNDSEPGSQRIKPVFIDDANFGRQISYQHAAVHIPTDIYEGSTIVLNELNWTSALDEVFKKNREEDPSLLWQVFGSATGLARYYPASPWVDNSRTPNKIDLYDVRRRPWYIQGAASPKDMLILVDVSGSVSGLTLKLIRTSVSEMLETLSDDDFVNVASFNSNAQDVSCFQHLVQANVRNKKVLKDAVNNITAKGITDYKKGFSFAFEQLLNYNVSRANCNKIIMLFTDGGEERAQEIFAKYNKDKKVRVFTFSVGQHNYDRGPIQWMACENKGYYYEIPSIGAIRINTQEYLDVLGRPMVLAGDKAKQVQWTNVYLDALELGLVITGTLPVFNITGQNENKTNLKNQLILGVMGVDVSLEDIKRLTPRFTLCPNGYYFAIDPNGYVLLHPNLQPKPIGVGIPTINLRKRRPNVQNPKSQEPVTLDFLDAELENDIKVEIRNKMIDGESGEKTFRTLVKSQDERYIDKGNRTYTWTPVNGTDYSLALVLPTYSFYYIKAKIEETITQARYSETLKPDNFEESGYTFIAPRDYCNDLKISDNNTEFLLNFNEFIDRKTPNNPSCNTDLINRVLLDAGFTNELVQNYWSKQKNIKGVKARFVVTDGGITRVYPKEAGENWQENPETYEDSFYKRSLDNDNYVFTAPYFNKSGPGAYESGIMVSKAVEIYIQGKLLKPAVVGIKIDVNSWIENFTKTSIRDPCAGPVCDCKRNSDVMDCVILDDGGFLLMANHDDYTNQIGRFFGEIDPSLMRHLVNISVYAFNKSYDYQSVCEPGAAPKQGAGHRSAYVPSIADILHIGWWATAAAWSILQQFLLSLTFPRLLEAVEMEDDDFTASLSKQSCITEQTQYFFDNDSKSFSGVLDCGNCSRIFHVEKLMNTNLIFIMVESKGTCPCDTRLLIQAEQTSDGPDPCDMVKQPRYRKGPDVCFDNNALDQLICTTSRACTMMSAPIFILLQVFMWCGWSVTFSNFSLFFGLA

| Compound | melting point [°C] | affinity to the α2δ protein [1] [nM] |
| --- | --- | --- |
| CCC[C@@H](C)C[C@H](CN)C(=O)O [(2R,4R)-2-Aminomethyl-4-methyl-heptanoic acid] | – | 29 |
| CC(C)CCCC(C)C[C@@H](N)CC(=O)O (stereo partly drawn) [R-3-amino-5,9-dimethyl-decanoic acid] | – | 527 |
| CCC[C@@H](C)C[C@H](CN)C(=O)O (as salt: hydrochloride) [(2R,4R)-2-Aminomethyl-4-methyl-heptanoic acid] | 226.3 to 228 | – |
| CCC[C@H](C)C[C@H](N)CC(=O)O [(3S,5S)-3-amino-5-methyl-octanoic acid] | – | 1000 |
| CCCC(C)(C)CC(CN)C(=O)O.Cl (stereo not drawn) [2-Aminomethyl-4,4-dimethyl-heptanoic acid hydrochloride] | 229.5 to 231 | 83 |

Further lines, with some results ahead:

| melting point [°C] | Compound | affinity to the α2δ protein [1] [nM] |
| --- | --- | --- |
| 194.2 to 195.2 | CCCC(C)(C)C[C@H](N)CC(=O)O (as salt: hydrochloride) | – |
| 142.5 to 143.3 | CCCC[C@@H](C)C[C@H](N)CC(=O)O (as salt: hydrochloride) | – |
| 142.5 to 142.7 | CCC[C@@H](C)C[C@H](N)CC(=O)O.Cl | – |

— US7517909B2, “Amino acids with affinity for the α2δ-protein” (Pfizer Inc, priority 2002, dated 2009)
